Results as given in patent publication US11236044B2, “Selective inhibitors of 12(S)-lipoxygenase (12-LOX) and methods for use of the same” (THE REGENTS OF THE UNIVERSITY OF MICHIGAN, priority 2018, dated 2022).
Like-named read-outs stand apart in the source and are kept apart here.

Assays:
[1] = system: thrombus formation in cremaster arterioles; experiment: Laser-induced cremaster arteriole thrombosis model; assay type: in vivo; conditions: WT mice, 3 mg/kg oral, twice a day for 2 days, versus PEG control; FIG. 4
Method: C57BL/6 wild-type (WT) control mice were purchased from Jackson Laboratories (Bar Harbor, Me., USA) and housed in the research facility at the University of Michigan. Compound A1 was synthesized and specifically formulated in Polyethylene Glycol 300 (PEG 300) for oral gavage dosing in mice for in vivo thrombosis and hemostasis studies. For laser-induced cremaster arteriole thrombosis model, mice were treated with compound A1 (3 mg/kg) or with PEG 300 via oral administration 2 times per day for 2 days prior to intravital microscopy studies on the third day.
Adult mice (10-12 weeks old) were anesthetized as described above and surgically prepared as described in detail, and a tracheal tube was inserted to facilitate breathing. The cremaster muscle was prepared and perfused with preheated bicarbonate-buffered saline throughout the experiment. DyLight 488-conjugated rat anti-mouse platelet GP1b8 antibody (0.1 μg/g; EMFRET Analytics) and Alexa Fluor 647-conjugated anti-fibrin (0.3 μg/g) or Alexa Flour 647 rat-anti mouse CD62P (3 μg/mouse) were administered by a jugular vein cannula prior to vascular injury. […] All captured images were analyzed for the change of fluorescent intensity over the course of thrombus formation after subtracting fluorescent background defined on an uninjured section of the vessel using the Slidebook program. […]

[2] = system: platelet accumulation in the lung (FcγRIIa-mediated platelet activation); experiment: Anti-GPIX-induced HITT model for lung thrombosis; assay type: in vivo, transgenic mice expressing the human FcγRIIa receptor; conditions: 15 mg/kg oral gavage, four hours following HITT induction, versus PEG vehicle; FIG. 5
Method: Adult transgenic mice (10-12 weeks old) expressing the human FcγRIIa receptor on their platelets were anesthetized as described above and were orally gavaged with 15 mg/kg of A1 or control vehicle 30-minutes prior to IV bolus injection of 0.75 mg/kg anti-GPIX to induce activation of the FcγRIIa receptor on the platelets to mimic heparin-induced thrombocytopenia and thrombosis (“HITT”) in the mouse. The anti-GPIX antibody was conjugated to DyLight 488 to visualize its binding to platelets and platelet accumulation in the lung. 4 hours post-anti-GPIX induction, the animals were sacrificed and the lungs were visualized using the Li—COR Odyssey imager.
Representative images of platelet accumulation (green) in the mouse lungs from control (PEG vehicle) and A1-treated (15 mg/kg) mice are shown in FIG. 5

[3] = Pharmacokinetic study of the inhibitors in mice blood plasma (PO and IV); assay type: in vivo; conditions: for concentration at 2 h / concentration at 4 h / concentration at 7 h: mouse, plasma, 30 mg/kg
Method: Pharmacokinetic Study of the Inhibitors in Mice Blood Plasma
The blood plasma concentration of compounds A1, A2, and A4 in mice was determined following per os, oral compound administration (“PO”) and intravenous (“IV”) administration
Calibration curve. The concentration range was evaluated from 2.5-5000 ng/ml for compound A2, 1-5000 ng/ml for compound A4, and 5-5000 ng/ml for compound A1. The curve was built with linear regression with weighing (1/X2). The linear regression analysis was performed by plotting the peak area ratio (y) against the concentration (x) in ng/mL.
Instrument Conditions. The LC-MS and mass spectrometry conditions for the compounds tested are shown below.
Results. The individual and average compound A1, A2, and A4 concentration-time data for IV and PO dosed groups are listed in Table 1, and graphically presented in FIG. 1.

[4] = iv, IV 30 mg/kg, n=3 (outliers excluded), read-out: Concentration in Plasma, Mean
[5] = iv, IV 30 mg/kg, read-out: Concentration in Plasma, Mouse 1
[6] = iv, IV 30 mg/kg, read-out: Concentration in Plasma, Mouse 2
[7] = iv, IV 30 mg/kg, read-out: Concentration in Plasma, Mouse 3
[8] = po, PO 30 mg/kg, n=3 (outliers excluded), read-out: Concentration in Plasma, Mean
[9] = po, PO 30 mg/kg, read-out: Concentration in Plasma, Mouse 1
[10] = po, PO 30 mg/kg, read-out: Concentration in Plasma, Mouse 2
[11] = po, PO 30 mg/kg, read-out: Concentration in Plasma, Mouse 3

## COc1cccc(CNc2ccc(S(=O)(=O)Nc3cccc(Cl)c3)cc2)c1O [Compound A1, N-(3-chlorophenyl)-4-((2-hydroxy-3-methoxybenzyl)amino) benzenesulfonamide]
[1]
  thrombus formation (platelet accumulation and fibrin formation) in cremaster arterioles: impairs thrombus formation
[2]
  thrombocytopenia and thrombosis (platelet accumulation) in mouse lungs: inhibit thrombocytopenia and thrombosis in mouse lungs
[3]; PO 30 mg/kg, 2 h
  Concentration in Plasma, Mouse 2: *899.2 ng/ml
[3]; iv, IV 30 mg/kg, 2 h, n=3 (outliers excluded), read-out: Concentration in Plasma, Mean
  concentration at 2 h: 77.4 ng/mL
[3]; iv, IV 30 mg/kg, 2 h, read-out: Concentration in Plasma, Mouse 1
  concentration at 2 h: 69.6 ng/mL
[3]; iv, IV 30 mg/kg, 2 h, read-out: Concentration in Plasma, Mouse 2
  concentration at 2 h: 124 ng/mL
[3]; iv, IV 30 mg/kg, 2 h, read-out: Concentration in Plasma, Mouse 3
  concentration at 2 h: 38.8 ng/mL
[3]; [4]
  concentration at 4 h: 29.2 ng/mL
  concentration at 7 h: 16.9 ng/mL
[3]; [5]
  concentration at 4 h: 46.4 ng/mL
  concentration at 7 h: 36.5 ng/mL
[3]; [6]
  concentration at 4 h: 20.2 ng/mL
  concentration at 7 h: 5.9 ng/mL
[3]; [7]
  concentration at 4 h: 20.9 ng/mL
  concentration at 7 h: 8.3 ng/mL
[3]; po, PO 30 mg/kg, 2 h, n=3 (outliers excluded), read-out: Concentration in Plasma, Mean
  concentration at 2 h: 40.4 ng/mL
[3]; po, PO 30 mg/kg, 2 h, read-out: Concentration in Plasma, Mouse 1
  concentration at 2 h: 21 ng/mL
[3]; po, PO 30 mg/kg, 2 h, read-out: Concentration in Plasma, Mouse 3
  concentration at 2 h: 59.7 ng/mL
[3]; [8]
  concentration at 4 h: 52.9 ng/mL
  concentration at 7 h: 15.2 ng/mL
[3]; [9]
  concentration at 4 h: 48.9 ng/mL
  concentration at 7 h: 12.1 ng/mL
[3]; [10]
  concentration at 4 h: 89.8 ng/mL
  concentration at 7 h: 24.1 ng/mL
[3]; [11]
  concentration at 4 h: 20 ng/mL
  concentration at 7 h: 9.3 ng/mL
